This note sets out measurements from patent US11241436B2, “Autophagy inducers for treatment of CNS conditions” (Northwestern University, priority 2017, dated 2022).

The subject of one data set is amyloid plaques. The data set is described as follows: Amyloid plaques stained by thioflavin S or Aβ42 antibody in brain of 5XFAD mice. In kind it is in vivo, mouse. The protocol: Scale bar: 500 μm. Results represent mean±s.e.m. N=6-8. *, P<0.05; **, P<0.01, t test.
Immunofluorescence microscopy. Paraformaldehyde-fixed brain tissues were sectioned at 30 μm thickness. Free-floating sagittal sections were immunostained with 1% thioflavin S (Sigma-Aldrich, 230456) for 20 minutes. Additional sections were immunostained with Aβ (Invitrogen, 700254, 1:500) and Alexa Fluro 594 goat anti rabbit (ThermoFisher Scientific, Al 1012). Sections were mounted on slides with mounting medium containing DAPI (Vectashield) and then analyzed by fluorescence microscopy under the 10× objective.

For the next data set, the system named is 5XFAD mice. In words: Morris water maze test of 5XFAD mice. In kind it is in vivo, mouse. The protocol: Escape latency and total distance traveled in visible platform test and hidden platform test are shown. N=10-11. Results represent mean±s.e.m. Two-way repeated measures ANOVA.
Escape latency and total distance traveled in visible platform test and hidden platform test are shown. Results represent mean±s.e.m. Statistics were analyzed by the IBM SPSS Statistics Tools comparing differences between 2 curves.
Morris water maze testing. For animal behavior, 6-month old mice were tested. The Morris water maze test consists of two sections: the visible platform testing and hidden platform testing. During the tests, mice were placed in the water tank filled with opaque water (maintained at 25° C.), with their heads facing toward the tank wall. In the visible platform section, a black platform extending 2 cm above the water level was used for these trials. For each trial, the platform was randomly positioned, and the mouse was placed in the tank at different start positions. The trial was stopped after the mouse found and climbed onto the platform, and the escape latency was recorded. […] Mice were tested for 4 days with eight trials per day. In the hidden platform section, a transparent platform underneath the water level was used instead of the black one during all trials, mice were tested with a fixed platform location over 5 days period with six trials per day, and they were allowed to search the platform in 60 s. In the tests, two parameters were evaluated: the trail duration (s) and distance to the platform (m).

Data set [1] can be described thus: Brain penetration / pharmacokinetics study. The note with it: for brain penetration: mouse, in vivo.
In data set [2] the test system is Hela cells stably expressing GFP-LC3. The data set is described as follows: GFP-LC3 puncta in Hela cells stably expressing GFP-LC3, with or without bafilomycin A1. In kind it is cell-based. The note with it: for numbers of GFP-LC3 puncta (autophagosomes): Hela cells, normal medium, compared with starvation; for accumulation of GFP-LC3 puncta, LC3-II and p62 (autophagic flux): co-treated with lysosomal inhibitor bafilomycin A1, compared to normal conditions. From the text:
Results represent mean±s.e.m. Statistics are comparing the indicated value with or without BafA 1 to the one under the normal condition.
Accordingly, an important translational question is how to reduce Beclin 2 activity to maintain CB sensitivity and prevent drug tolerance induced by repeated cannabinoid exposure. To avoid the technical difficulty and risk of directly deleting Beclin 2 in vivo (such as injecting shRNAs or CRISPR/Cas9 constructs), which may disrupt Beclin 2-regulated autophagy, a novel and more convenient strategy to achieve the same goal via modulating the Beclin 2 interactome was developed and tested, which will not affect the essential autophagy function of Beclin 2 (FIG. 6A). Beclin 2 is present in two distinct protein complex pools, the Beclin 2-class Ill phosphatidylinositol 3-kinase complex for autophagy, and the Beclin 2-GASP1-GPCR complex in which Beclin 2-GASP1 binding is required for GPCR degradation. Thus, it was hypothesized that Beclin 2 is a limiting factor that regulates the balance between the two lysosomal degradation pathways, and that competitive recruitment of Beclin 2 to the autophagy machinery by activating autophagy prevents it from functioning in CB1R downregulation and thus restores CB1R functionality and reverses drug tolerance. To test this hypothesis, whether autophagy activation by brain-penetrable inducers inhibits the Beclin 2-GASP1 interaction was first examined. […] To determine autophagy activation by the two compounds, several markers of autophagy induction were analyzed, including formation of autophagosomes in cells and transgenic mice expressing GFP-tagged LC3 (an autophagosome marker), degradation of p62 (an autophagy substrate protein), and conversion of LC3 from the non-lipidated form (LC3-1) to the autophagosome-associated lipidated form (LC3-11). […]
To determine autophagy activation by the 2 compounds ML246 and Rg2, several markers of autophagy induction were analyzed, including formation of autophagosomes in cells and transgenic mice expressing GFP-tagged MAP1LC3/LC3 (microtubule-associated protein 1 light chain 3; an autophagosome marker), degradation of SQSTM1/p62 (sequestosome 1; an autophagy receptor and substrate protein), and conversion of LC3 from the non-lipidated form (LC3-I) to the phagophore- and autophagosome-associated lipidated form (LC3-II). […]

In a further data set the test system is GFP-LC3 transgenic mice. In words: GFP-LC3 puncta in tissues of GFP-LC3 transgenic mice. In kind it is in vivo, mouse. Conditions: for numbers of GFP-LC3 puncta (autophagosomes): mouse brain; for number of GFP-LC3 puncta (autophagosomes): brain frontal cortex, heart, liver and muscle. From the text:
Results represent mean±s.d. Scale bar, 25 μm. N>100 cells or N2::4 mice.
Scale bar, 20 μm. Results represent mean±s.d. N≥4 mice.
Results represent mean±s.e.m. Statistics compare each value to the one with DMSO treatment. *, P<0.05; **, P<0.01; ***, P<0.001, t test. Scale bar: 20 μm.
To test this hypothesis, it was confirmed that Rg2 induces autophagy in vivo, by injecting Rg2 intraperitoneally (i.p.) into transgenic mice globally expressing GFP-LC3. […] Furthermore, in vivo autophagy induction by Rg2 via GFP-LC3 puncta assays in both muscle and brain was examined. […] Thus, the majority of Rg2 is not bound by plasma proteins and is freely available. Taken together, Rg2 was identified as a new in vivo autophagy inducer in vivo.
Autophagy analyses. For assessment of autophagy in vivo, 8-week old male WT and Becn 1FA/FA mice crossed to GFP-LC3 mice were exercised for 90 minutes, or starved for 48 h, and then anaesthetized by isoflurane and perfused with 4% PFA Brain and muscle samples were fixed in 4% PFA overnight, 15% sucrose for 4 h and 30% sucrose overnight before frozen sections were prepared. The number of GFP-LC3 puncta per unit area of tissue was quantified by fluorescence microscopy. Autophagy in vivo was also analyzed by western blot analysis of brain tissue extracts with antibodies against LC3 and p62/SQSTM1 (see below for details).

For the molecule `N=c1c2c(-c3ccccc3)c(-c3ccccc3)n(Cc3ccccc3)c2ncn1[C@H]1CC[C@H](O)CC1` [ML246], in the data set with amyloid plaques (5XFAD mice, 5 weeks of ML246), the amyloid plaques result is “trend of plaque reduction”. Moreover, the “performance during the hidden platform trials” value in the data set on 5XFAD mice (6-month old 5XFAD mice, ML246 daily for 5 weeks) is reported as “improved the performance”. In addition, the brain penetration result in data set [1] is “can pass the blood-brain barrier”. Moreover, the “numbers of GFP-LC3 puncta (autophagosomes)” value (shortened to “numbers of GFP-LC3 puncta”) (in data set [2]; with GFP-LC3 transgenic mice) was “markedly increased” in each case. The “accumulation of GFP-LC3 puncta, LC3-II and p62 (autophagic flux)” value in data set [2] is listed as “more accumulation”.

On to `CC(C)=CCC[C@](C)(O)[C@H]1CC[C@]2(C)[C@@H]1[C@H](O)C[C@@H]1[C@@]3(C)CC[C@H](O)C(C)(C)[C@@H]3[C@@H](O[C@@H]3O[C@H](CO)[C@@H](O)[C@H](O)[C@H]3O[C@@H]3O[C@@H](C)[C@H](O)[C@@H](O)[C@H]3O)C[C@]12C` [Rg2, ginsenoside Rg2], for which the “number of amyloid plaques” value in the data set on amyloid plaques (Rg2-treated 5XFAD mice, thioflavin or Aβ42 antibody) is “significantly fewer number”. The “escape latency and distance, hidden platform” value with 5XFAD mice (5XFAD mice, Rg2 for 4 months) was “significantly improved performance”. In the data set on 5XFAD mice (WT, vehicle-treated and Rg2-treated mice), the “escape latency or distance, visible platform” value is listed as “no significant difference”. Besides, in data set [1] (24 h postinjection), the brain level result was “still detectable”. Further, the “time of peak brain level after injection” value in data set [1] (brain) was determined as 15 min. In data set [1], the brain penetration result is on record as “able to enter the brain”. Moreover, in data set [2], the “numbers of GFP-LC3 puncta” value is given as “markedly increased”; the “accumulation of GFP-LC3 puncta, LC3-II and p62 (autophagic flux)” value was “more accumulation”. For the same molecule, in the data set on GFP-LC3 transgenic mice (10 mg/kg i.p.), the “number of GFP-LC3 puncta (autophagosomes)” value is given as “significantly increases”. Besides, the “number of GFP-LC3 puncta (autophagosomes)” value with GFP-LC3 transgenic mice (20 mg/kg i.p.) was “significantly increases”. Moreover, in the data set with GFP-LC3 transgenic mice (brain), the “duration of autophagy activity” value is “at least 24 h” and the “time of peak of autophagy activity” value is 4 h. In addition, in the data set with GFP-LC3 transgenic mice, the “numbers of GFP-LC3 puncta” value was “markedly increased”. In the data set on GFP-LC3 transgenic mice (muscle), the “time of decline of autophagy to the basal level” value lay in the range of 8 to 16 h and the “time of peak of induced autophagy” value was found to be 4 h.
